For the experiment, the target named is PIK3CG (human) (UniProt P48736). Nature of the experiment: Assessment of PIK3CG Kinase Activity.

The structures appear in SMILES notation.

Broadly, the IC50 is the concentration that gives 50% inhibition.

Chain of PIK3CG (human) (P48736 whole entry, looked up): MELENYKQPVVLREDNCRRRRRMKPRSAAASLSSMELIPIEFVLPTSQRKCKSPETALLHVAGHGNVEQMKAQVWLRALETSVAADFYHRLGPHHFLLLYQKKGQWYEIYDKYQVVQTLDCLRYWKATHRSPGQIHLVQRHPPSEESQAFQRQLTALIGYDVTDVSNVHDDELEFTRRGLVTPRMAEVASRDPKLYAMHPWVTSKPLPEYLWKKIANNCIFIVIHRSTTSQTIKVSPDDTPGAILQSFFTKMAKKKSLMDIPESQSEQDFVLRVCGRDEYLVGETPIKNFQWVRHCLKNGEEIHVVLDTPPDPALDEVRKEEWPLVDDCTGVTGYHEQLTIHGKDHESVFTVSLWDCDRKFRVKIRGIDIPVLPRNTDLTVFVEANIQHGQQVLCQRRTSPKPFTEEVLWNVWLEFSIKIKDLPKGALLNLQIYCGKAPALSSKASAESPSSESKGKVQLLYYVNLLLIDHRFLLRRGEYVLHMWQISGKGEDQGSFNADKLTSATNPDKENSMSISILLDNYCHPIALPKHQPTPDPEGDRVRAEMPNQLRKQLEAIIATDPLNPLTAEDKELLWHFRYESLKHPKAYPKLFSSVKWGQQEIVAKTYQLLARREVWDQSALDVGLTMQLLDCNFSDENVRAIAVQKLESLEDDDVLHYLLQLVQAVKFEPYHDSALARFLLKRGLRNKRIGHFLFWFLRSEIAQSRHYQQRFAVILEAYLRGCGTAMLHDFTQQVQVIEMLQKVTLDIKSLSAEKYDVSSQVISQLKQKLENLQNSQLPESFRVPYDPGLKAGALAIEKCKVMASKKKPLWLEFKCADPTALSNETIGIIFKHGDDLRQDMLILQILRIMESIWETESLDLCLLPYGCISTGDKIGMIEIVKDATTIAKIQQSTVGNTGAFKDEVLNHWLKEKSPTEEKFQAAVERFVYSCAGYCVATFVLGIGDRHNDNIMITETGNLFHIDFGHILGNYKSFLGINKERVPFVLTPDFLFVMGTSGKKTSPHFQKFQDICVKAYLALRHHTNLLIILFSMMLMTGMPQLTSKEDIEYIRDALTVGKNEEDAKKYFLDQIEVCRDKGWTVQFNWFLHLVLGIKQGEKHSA

`CC(=O)Nc1nc2c(s1)-c1c(c(-c3c[nH]cn3)nn1-c1ccccc1Cl)CC2` came in with an IC50 below 800 nM.
The figure for `CC(=O)Nc1nc2c(s1)-c1c(cnn1-c1ccc(C(=O)NCc3cccc(N4CCNC4=O)c3)cc1)CC2` is below 800 nM; for `CC(=O)Nc1nc2c(s1)-c1c(cnn1-c1ccc(C(=O)N3CCC(N4CCNC4=O)CC3)cc1)CC2` it is below 800 nM; for `CN(C)C(=O)Nc1nc2c(s1)-c1c(cnn1-c1ccccc1Cl)C2` it is below 800 nM.
Then `Cc1ccccc1-n1ncc2c1C1SC(N)=NC1C2` (stereo not drawn), with below 800 nM.
The figure for `COCc1nn(-c2ccccc2Cl)c2c1CCc1nc(NC(C)=O)sc1-2` is below 800 nM; for `CC(=O)Nc1nc2c(s1)-c1c(cnn1-c1ccc(F)cc1)CC2` it is below 800 nM; for `CC(=O)Nc1nc2c(s1)-c1c(c(C(=O)NCCO)nn1-c1ccccc1Cl)CC2` it is below 800 nM.
Molecule `CC(=O)Nc1nc2c(s1)-c1c(cnn1-c1cccc(C)c1)CC2` registered an IC50 below 800 nM.
Take `CC(=O)Nc1nc2c(s1)-c1c(c(C(N)=O)nn1-c1ccccc1Cl)CC2`: the half-inhibitory concentration (IC50) was below 800 nM.
The figure for `CC(=O)Nc1nc2c(s1)-c1c(c(C(C)C)nn1-c1ccc(C(=O)O)cc1Cl)CC2` is below 800 nM; for `CC(=O)Nc1nc2c(s1)-c1c(cnn1-c1ccc(CC(=O)N(C)Cc3ccccn3)cc1)CC2` it is below 800 nM; for `CC(=O)Nc1nc2c(s1)-c1c(cnn1-c1ccccc1Cl)CC2` it is below 800 nM.
In turn, `CNC(=O)Nc1nn(-c2ccccc2Cl)c2c1CCc1nc(NC(C)=O)sc1-2` showed an IC50 below 800 nM.
`CC(=O)Nc1nc2c(s1)-c1c(c(-c3cn(C)cn3)nn1-c1ccccc1C(F)(F)F)CC2` showed a concentration for half-maximal inhibition (IC50) below 800 nM.
Then `CC(=O)Nc1nc2c(s1)-c1c(cnn1C(=O)c1ccccc1)CC2`, with below 800 nM; and `COc1ccccc1-c1ncc2c(n1)-c1sc(NC(C)=O)nc1CC2`, with below 800 nM; and `CN(C)CCCC(=O)Nc1nc2c(s1)-c1c(cnn1-c1ccccc1)C2`, with below 800 nM.
The figure for `COC(=O)Nc1nc2c(s1)-c1c(cnn1-c1ccccc1)CC2` is below 800 nM.
Then `CC(=O)Nc1ncc2c(n1)-c1sc(NC(C)=O)nc1CC2`, with below 800 nM.
In turn, `CC(=O)Nc1nc2c(s1)-c1c(c(C(C)C)nn1-c1ccccc1Cl)CC2` returned an IC50 below 800 nM.
Molecule `CC(=O)Nc1nc2c(s1)-c1nc(N(CCN(C)C)C(C)=O)ncc1CC2` registered an IC50 below 800 nM.
As for `CC(C)(C)NC(=O)NCC#CCNC(=O)Nc1nc2c(s1)-c1c(cnn1-c1ccccc1)CC2`, the IC50 was below 800 nM.
Take `CC(=O)Nc1nc2c(s1)-c1c(cnn1-c1cccc(Br)c1)CC2`: the IC50 is below 800 nM.
Regarding `CC(=O)Nc1nc2c(s1)-c1c(cnn1-c1ccc(C(=O)N[C@H](CCCCNC(=N)N)C(N)=O)cc1Cl)CC2`, the IC50 is below 800 nM.
The figure for `CC(=O)Nc1nc2c(s1)-c1c(c(-c3ccco3)nn1-c1ccc(C(=O)N(C)C)cc1Cl)CC2` is below 800 nM.
Then `CC(=O)Nc1nc2c(s1)-c1c(c(C)nn1-c1ccccc1)CC2`, with below 800 nM; and `CC(=O)Nc1nc2c(s1)-c1c(c(C(=O)N3CCOCC3)nn1-c1ccccc1Cl)CC2`, with below 800 nM.
In turn, `CC(=O)Nc1nc2c(s1)-c1c(cnn1-c1ccc(C(=O)NC3CCC(NC(=O)c4cccc5ccccc45)CC3)cc1)CC2` (stereo not drawn) came in with an IC50 below 800 nM.
Then `CC(=O)Nc1nc2c(s1)-c1c(cnn1-c1ccc(C(=O)N[C@H]3CC[C@@H](N4CCN(c5ccccc5)CC4)CC3)cc1)CC2`, with below 800 nM; and `CC(=O)Nc1nc2c(s1)-c1c(cnn1-c1ccc(C(=O)N(C)Cc3ccccc3)cc1)CC2`, with below 800 nM; and `CC(=O)Nc1nc2c(s1)-c1c(cnn1-c1c(Cl)cccc1Cl)C2`, with below 800 nM.
Then `CC(=O)Nc1nc2c(s1)-c1c(cnn1-c1ccc(C(=O)N3CCS(=O)(=O)CC3)cc1)CC2`, with below 800 nM; and `CC(=O)Nc1nc2c(s1)-c1c(cnn1-c1ccc(CC(=O)N[C@@H]3CCOC3=O)cc1)CC2`, with below 800 nM; and `COCc1nn(-c2ccc(C(=O)NC3CCN(C)CC3)cc2Cl)c2c1CCc1nc(NC(C)=O)sc1-2`, with below 800 nM.
`CC(=O)Nc1nc2c(s1)-c1c(cnn1-c1ccc(C(=O)N[C@H]3CCc4nc(N)sc4C3)cc1Cl)CC2` gave an IC50 below 800 nM.
Turning to `CC(=O)Nc1nc2c(s1)-c1c(c(-c3ccco3)nn1-c1ccccc1F)CC2`, the IC50 is below 800 nM.
The figure for `CC(=O)Nc1nc2c(s1)-c1c(cnn1-c1ccc(C(=O)N[C@@H](CCCCN)C(N)=O)cc1Cl)CC2` is below 800 nM; for `CC(=O)Nc1nc2c(s1)-c1c(cnn1-c1ccc(F)cc1F)CC2` it is below 800 nM; for `COCc1nn(-c2ccc(C(=O)N[C@H]3CC[C@@H](N4CCCC4)CC3)cc2Cl)c2c1CCc1nc(NC(C)=O)sc1-2` it is below 800 nM.
Then `CC(=O)Nc1nc2c(s1)-c1nc(N3CCCCC3)ncc1CC2`, with below 800 nM.
The figure for `CC(=O)Nc1nc2c(s1)-c1c(cnn1-c1ccc(C(=O)N[C@H](Cc3cnc[nH]3)C(N)=O)cc1Cl)CC2` is below 800 nM.
As for `CC(=O)Nc1nc2c(s1)-c1c(cnn1-c1ccc(Cl)cc1)CC2`, the IC50 is below 800 nM.
Molecule `CCn1ncc2c1-c1sc(NC(C)=O)nc1CC2` had an IC50 below 800 nM.
Then `CC(=O)Nc1nc2c(s1)-c1c(cnn1-c1ccc(C(=O)N[C@@H](Cc3ccc4ccccc4c3)C(N)=O)cc1Cl)CC2`, with below 800 nM; and `CC(=O)Nc1nc2c(s1)-c1c(cnn1-c1ccc(C(=O)N[C@H]3CC[C@H](N4CCN(S(C)(=O)=O)CC4)CC3)cc1)CC2`, with below 800 nM; and `CNC(=O)Nc1nc2c(s1)-c1c(cnn1-c1ccccc1Cl)C2`, with below 800 nM.
In turn, `CCN1CCCC1CNCC(=O)Nc1nc2c(s1)-c1c(cnn1-c1ccccc1)CC2` (stereo not drawn) had an IC50 below 800 nM.
The molecule `CC(=O)Nc1nc2c(s1)-c1c(cnn1-c1ccc(CC(=O)N3CCCC(=O)CC3)cc1)CC2` gave an IC50 below 800 nM.
The figure for `CC(=O)Nc1nc2c(s1)-c1nc(C(C)C)nc(O)c1CC2` is below 800 nM.
Take `O=C(CO)Nc1nc2c(s1)-c1c(cnn1-c1ccccc1)CC2`: the IC50 was below 800 nM.
Then `CC(=O)Nc1nc2c(s1)-c1c(c(C(C)C)nn1-c1ccccc1)CC2`, with below 800 nM.
The molecule `CC(=O)Nc1nc2c(s1)-c1c(cnn1-c1ccc(C(=O)NCCc3c[nH]cn3)cc1)CC2` gave an IC50 below 800 nM.
Molecule `CN(C)CCCC(=O)Nc1nc2c(s1)-c1c(cnn1-c1ccccc1Cl)C2` returned a concentration for half-maximal inhibition (IC50) below 800 nM.
The molecule `CC(=O)Nc1nc2c(s1)-c1c(cnn1-c1ccc(C(=O)O)cc1)CC2` showed an IC50 below 800 nM.
Then `CCCC(=O)n1cc2c(n1)-c1sc(NC(C)=O)nc1CC2`, with below 800 nM; and `CC(=O)Nc1nc2c(s1)-c1c(cnn1-c1ccc(C(=O)N3CCOCC3)cc1)CC2`, with below 800 nM.
As for `O=C(CNC[C@H](O)[C@@H](O)[C@H](O)[C@H](O)CO)Nc1nc2c(s1)-c1c(cnn1-c1ccccc1)CC2`, the IC50 was below 800 nM.
Then `CC(=O)Nc1nc2c(s1)-c1c(cnn1-c1ccc(C(=O)NCC(F)(F)F)cc1)CC2`, with below 800 nM; and `CC(=O)Nc1nc2c(s1)-c1c(c(-c3ccccc3)nn1-c1ccccc1Br)CC2`, with below 800 nM; and `CC(=O)Nc1nc2c(s1)-c1c(cnn1-c1ccc(CC(=O)NCCCN(C)C)cc1)CC2`, with below 800 nM.
The figure for `COCc1nn(-c2ccccc2)c2c1CCc1nc(NC(C)=O)sc1-2` is below 800 nM.
The figure for `CCCN(CC)C(=O)Cc1ccc(-n2ncc3c2-c2sc(NC(C)=O)nc2CC3)cc1` is below 800 nM; for `CC(=O)Nc1nc2c(s1)-c1c(cnn1-c1ccc(S(=O)(=O)N3CCCCC3)cc1)CC2` it is below 800 nM; for `CC(=O)Nc1nc2c(s1)-c1c(c(-c3ccccn3)nn1-c1ccccc1C(F)(F)F)CC2` it is below 800 nM.
Molecule `CC(=O)Nc1nc2c(s1)-c1nc(N3CCCC(CN)C3)ncc1CC2` (stereo not drawn) came in with a 50% inhibitory concentration (IC50) below 800 nM.
As to `CC(=O)Nc1nc2c(s1)-c1c(cnn1-c1ccc(C(=O)NCc3cccnc3)cc1)CC2`, the half-inhibitory concentration (IC50) is below 800 nM.
In turn, `CN(C)CCN(C)C(=O)Nc1nc2c(s1)-c1c(cnn1-c1ccccc1Cl)C2` came in with an IC50 below 800 nM.
In turn, `CC(=O)Nc1nc2c(s1)-c1c(c([C@H]3CCCO3)nn1-c1ccc(C(=O)NCc3ccncc3)cc1Cl)CC2` yielded an IC50 below 800 nM.
The figure for `CC(=O)Nc1nc2c(s1)-c1c(c(C(=O)N3CCSC3)nn1-c1ccccc1)CC2` is below 800 nM; for `CC(=O)Nc1nc2c(s1)-c1c(cnn1-c1ccc(C(=O)NC3CCOC3=O)cc1)CC2` (stereo not drawn) it is below 800 nM.
The figure for `CC(=O)Nc1nc2c(s1)-c1nc(C3CC3)ncc1CC2` is below 800 nM; for `CC(=O)Nc1nc2c(s1)-c1nc(-c3ccccc3Cl)ncc1CC2` it is below 800 nM; for `CC(=O)Nc1nc2c(s1)-c1c(cnn1-c1ccc(C(=O)N(C)CC(=O)N3CCOCC3)cc1)CC2` it is below 800 nM.
`CC(=O)Nc1nc2c(s1)-c1nn(-c3ccccc3Cl)c(-c3ccoc3)c1CC2` returned an IC50 below 800 nM.
The figure for `Cc1ccccc1-c1ncc2c(n1)-c1sc(NC(=O)N(C)C)nc1CC2` is below 800 nM.
With `CC(=O)Nc1nc2c(s1)-c1c(cnn1-c1ccc(C(=O)NCCCN(C)C)cc1)CC2`, the IC50 is below 800 nM.
As for `CC(=O)Nc1nc2c(s1)-c1c(c([C@H]3CCCO3)nn1-c1ccccc1Br)CC2`, the IC50 is below 800 nM.
The figure for `CC(=O)Nc1nc2c(s1)-c1c(c(-c3ccccc3)nn1-c1ccccc1Cl)CC2` is below 800 nM.
Then `NC(=O)Nc1nc2c(s1)-c1c(cnn1-c1ccccc1)CC2`, with below 800 nM.
The figure for `CC(=O)Nc1nc2c(s1)-c1c(c(C(=O)N(C)CCO)nn1-c1ccccc1)CC2` is below 800 nM; for `CC(=O)Nc1nc2c(s1)-c1nc(-n3cccn3)ncc1CC2` it is below 800 nM; for `CC(=O)Nc1nc2c(s1)-c1c(cnn1-c1ccc(C(=O)N3CCCC(O)C3)cc1)CC2` (stereo not drawn) it is below 800 nM.
As for `CC(=O)Nc1nc2c(s1)-c1c(cnn1-c1ccc(C(=O)NCc3nc4ccccc4n3C)cc1)CC2`, the IC50 is below 800 nM.
The figure for `Nc1nc2c(s1)-c1nc(-c3ccccc3)ncc1CC2` is below 800 nM.
Regarding `CC(=O)Nc1nc2c(s1)-c1nc(COc3ccccc3Cl)ncc1CC2`, the IC50 is below 800 nM.
The figure for `C#CCN(C)C(=O)c1ccc(-n2ncc3c2-c2sc(NC(C)=O)nc2CC3)cc1` is below 800 nM.
In turn, `CNc1ncc2c(n1)-c1sc(NC(C)=O)nc1CC2` returned an IC50 below 800 nM.
